Data on one compound can be found in PMC12412324, “Design, synthesis, and evaluation of novel pinane-based thiazolidione derivatives with anti-glioblastoma activity” (Journal of Enzyme Inhibition and Medicinal Chemistry, 2025).

Test [1] relates to apoptosis-related and autophagy-related proteins in U251 cells. As to the kind of experiment: Western blotting of apoptosis-related and autophagy-related proteins. It counts as cell-based. The note with it: immunoblot. As for the experimental part: The protein content in the lysates was measured using a BCA protein assay kit, and 20 μg protein per sample was separated by SDS-PAGE and transferred to PVDF membranes (Merck Millipore, Burlington, MA, USA). After blocking with 5% skim milk in Tris buffered saline-Tween (TBS-T) at room temperature for 2h, the blots were incubated overnight with the following primary antibodies at 4 °C: mouse anti-GAPDH (ab8245, 1:10000), rabbit anti-Bax (ab32503, 1:5000), anti-Bcl-2 (ab32124, 1:1000), anti-caspase 3 (ab32351, 1:5000), anti-cleaved caspase 3 (ab32042, 1:500), anti-cleaved PARP-1 (ab32561, 1:1000), anti-LC3B (ab192890, 1:2000), anti-p62 (ab109012, 1:10000), anti-PARP-1 (ab32138, 1:10000). Following three washes with TBS-T, the membranes were incubated with corresponding horseradish peroxidase-conjugated secondary antibodies (1:10000) at room temperature for 90 min, and washed thrice with TBS-T. The bands were visualised using the Minichem@610 Chemiluminescence imager (SAGCEREATION, Beijing) on the chemiluminescence channel.
Background: Immunoblotting shows a protein as a band on a membrane.

The test system of test [2] is U251 cells. Put plainly: Cell cycle distribution by flow cytometry. Format: cell-based. Conditions: U251, C5 2.5, 5, 10 μM, 48 h. On the procedure:
(§1) U251 (1 × 10^5 cells/well) in logarithmic growth phase were transferred into 6-well microplates and cultured for 12 h. […] Annexin V-FITC/PI staining kit (Yeasen, Shanghai, China) was used to detect cell apoptosis. The cell cycle distribution was analysed by staining with a cell cycle analysis kit. Intracellular ROS levels were also detected using a ROS assay kit (Yeasen, Shanghai, China). All assays were performed as per the manufacturer’s instructions, and the stained cells were analysed by flow cytometry (Beckman Coulter, Miami, FL) to quantify apoptosis rates, cell cycle distribution, and ROS levels as appropriate.
For orientation: In flow cytometry, cells or beads pass a laser one at a time.

The next test has as its system U87. Put plainly: CCK-8 cell viability assay, U87. It counts as cell-based. Conditions: Homo sapiens, U-87 MG, 72 h, CCK-8, 72 h, mean ± SD of three independent experiments. As for the experimental part:
(§2) The U87MG cell line (catalogue iCell-h224) and U251MG cell line (catalogue iCell-h219) were purchased from iCell Bioscience Inc (Shanghai) cell bank. T98G cell line was obtained from Yining Zhang’s group. All cells were cultured in DMEM supplemented with 10% (v/v) FBS and penicillin-streptomycin in a humidified incubator at 37 °C under 5% CO2. The different compounds were dissolved in DMSO at the concentration of 10 mM and diluted in serum-free medium. The GBM cells were seeded into 96-well microplates at the density of 6000 cells/well and incubated for 24 h. Fresh media supplemented with different concentrations of the compounds were added, and the cells were cultured for 72 h. The CCK-8 reagent (TargetMol, C0005) was added to each well and the cells were incubated for 4 h at 37 °C. […] the absorbance was measured at […] using a microplate reader (Genios Tecan). An untreated control group was included and its viability was set as 100%. IC50 value of the two probes was calculated using GraphPad Prism 5.0.
For orientation: Formazan colour is commonly taken as a measure of viable cells.

In test [3] the test system is U251 cells. As to the kind of experiment: Transwell invasion experiment (Matrigel). Format: cell-based. The note with it: U251, C5 2.5, 5, 10 µM, 24 h, dose-dependent. On the procedure:
Matrigel-coated transwell chambers (24-well; 8-μm pore size, Corning, New York, NY, USA) were used to evaluate the invasion capability of GBM cells. The U251 cells incubated with different doses of C5 (0, 2.5, 5, and 10 μM) for 24 h were seeded on Matrigel-coated transwell chambers at the density of 2 × 10^4/well in a serum-free medium. After culturing for 24 h, the cells that invaded through Matrigel to the lower surface of the membrane were fixed with […] and stained with 0.1% crystal violet. The cells were counted under an inverted microscope in at least 5 random fields per well.

The next test concerns LO2. As to the kind of experiment: CCK-8 cytotoxicity, normal human cell line LO2. Format: cell-based. Conditions: L02, mean ± SD of three independent experiments.
Test [4] deals with U251 cells. As to the kind of experiment: Intracellular ROS by flow cytometry (DCFH-DA). It counts as cell-based. The note with it: U251, 5 μM C5, DCFH-DA. As for the experimental part: U251 (1 × 10^5 cells/well) in logarithmic growth phase were transferred into 6-well microplates and cultured for 12 h. Therefore, U251 cells were treated with C5 (0, 2.5, 5, and 10 μM) for 24 h. Annexin V-FITC/PI staining kit (Yeasen, Shanghai, China) was used to detect cell apoptosis. The cell cycle distribution was analysed by staining with a cell cycle analysis kit. Intracellular ROS levels were also detected using a ROS assay kit (Yeasen, Shanghai, China). All assays were performed as per the manufacturer’s instructions, and the stained cells were analysed by flow cytometry (Beckman Coulter, Miami, FL) to quantify apoptosis rates, cell cycle distribution, and ROS levels as appropriate.

Test [5] deals with U251 multicellular tumour spheroids. As to the kind of experiment: 3D spheroid assay (MCTSs, calcein-AM/PI). It counts as cell-based. Conditions: C5 24 h, dose-dependent. As for the experimental part:
Malignant glioblastoma tumour cells U251 were seeded in cell-repellent 96-well U-bottom plates (Sbio™), and cultured for 72 h to allow spheroid formation. […] Spheroids were stained with PI and Calcein-AM, and observed under a fluorescence microscope.

The target in test [6] is T1, CDK2 (Homo sapiens, UniProt P24941).
T1 construct: endogenous in cells; host or cells: U251 cells (lysate)
As to the kind of experiment: Cellular thermal shift assay (CETSA). It counts as binding. The note with it: U251, C5 50 and 100 µM, 40–70 °C, compared to control group. On the procedure:
U251 cells in logarithmic growth were harvested and lysed with protease inhibitors and phosphorylase inhibitors, followed by ultrasonic disruption and ice extraction for 1 h. After that, the lysate was divided into three parts evenly and incubated with DMSO, 50 µM of C5, and 100 µM of C5 for 1 h at room temperature. Subsequently, samples were heated in the PCR machine for 10 min in indicated temperature gradients (40–70 °C), respectively. Finally, samples were centrifuged at 14,000 × g for 30 min at 4 °C to remove aggregates, and the resulting supernatant was analysed with western blotting.

Test [7] deals with U251 cells. Put plainly: Mitochondrial membrane potential (JC-1). It counts as cell-based. The note with it: U251, C5 2.5, 5, 10 μM, 24 h. On the procedure: U251 cells were seeded in 6-well microplates at the density of 1.5 × 10^5 cells/well and cultured overnight. Fresh medium containing different doses of C5 (0, 2.5, 5, and 10 μM) was added, and the cells were cultured for 24 h. The cells were stained using the JC-1 kit (Sigma-Aldrich, USA) according to the manufacturer’s instructions and observed by fluorescence microscopy. The changes in the ratio of the red and green fluorescence intensities were calculated to evaluate MMP.

Another test has as its system T98G. Put plainly: CCK-8 cell viability assay, T98G. The note with it: Homo sapiens, T98G, 72 h, CCK-8, 72 h, mean ± SD of three independent experiments. Format: cell-based. On the procedure:
as §2

For test [8], the system named is GBM cell lines (U87, T98G, and U251). As to the kind of experiment: CCK-8 anti-proliferation, three GBM cell lines taken together. It counts as cell-based. Conditions: read-out: IC50 values against all three GBM cell lines. On the procedure:
as §2

Test [9] deals with T1, CDK2. As to the kind of experiment: Drug affinity responsive target stability (DARTS) assay. The note with it: U251 lysate, C5 50 and 100 μM, pronase 30 min, versus DMSO. It counts as binding. As for the experimental part: U251 cells were plated in 10 cm dishes. After overnight, the cells were washed by precooled PBS, and lysed by NP-40 lysis buffer for 30 min. Next, lysates were centrifuged at 13000 rpm for 15 min at 4 °C, and protein concentration was determined using a BCA protein assay kit (Solarbio, PC0020). The supernatants were divided into four 50 μL aliquots and incubated with DMSO or compound C5 (50 and100μM) for 30 min at room temperature. Then, the 5 μL of Pronase (The method of preparing the stock solution is 1 μg of Pronase in 200 μg of lysate, the effect concentration which is diluted by ultrapure water to 200X/400X/600X), and the reaction was stopped by 5× loading buffer. Protein samples were boiled and analysed by using Western blot.

Another test has as its system U251. Put plainly: CCK-8 cell viability assay, U251. Format: cell-based. The note with it: Homo sapiens, U-251, 72 h, CCK-8, 72 h, mean ± SD of three independent experiments. On the procedure: as §2
Test [10] concerns U251 cells. Put plainly: Annexin V-FITC/PI apoptosis flow cytometry. Conditions: U251, C5 10 μM, 48 h. It counts as cell-based. As for the experimental part: as §1
The mark [11] stands for this setting: U251, C5 treatment 24 h, concentration-dependent.

“And” between values parts separate entries of the source, which are not always exact repeats. Identical values can stand only once.

One may read the IC50 as the midpoint of a concentration-inhibition curve. In the case of `CN1C(=O)C(=Cc2ccc(O)cc2)SC1=NN=CC1=CCC2CC1C2(C)C` (stereo not shown) [C5, 2-(((6,6-Dimethylbicyclo[3.1.1]hept-2-en-2-yl)methylene)hydrazineylidene)-5–(4-hydroxybenzylidene)-3-methylthiazolidin-4-one], in [1] (U251, C5 treatment 24 h), the Bax expression result is “upregulation”. The Bcl-2 expression entry in test [1] (U251, C5 treatment 24 h) is reported as “dose-dependent downregulation”. The PARP cleavage entry in test [1] (setting [11]) was “enhanced”. For the same compound, the caspase-3 activation result in test [1] (setting [11]) is “enhanced”. For the same compound, the LC3B-II expression result in [1] (U251, C5 treatment) is “significantly enhanced”. Also, the P62 expression entry in test [1] (U251, C5 treatment) is “significantly enhanced”. For the same compound, in the test on U251 cells [2], the cell cycle distribution entry is on record as “decrease in the G2/M population, with a concomitant increase in the S phase population”. In addition, the 50% inhibitory concentration (IC50) with U87 is 3.98 ± 0.34 µM; with LO2 it was 43.2 ± 0.21 µM; in the test on T98G, 4.25 ± 0.38 µM; in test [8] it was 3.12 to 4.25 µM and < 5 µM; with U251, 3.12 ± 0.45 µM. Moreover, the “number of viable cells that invaded through the Matrigel” value with U251 cells [3] is “significantly decreased”. Moreover, the “intracellular ROS levels” value in the test with U251 cells [4] is given as “significantly increased”. The “viability of U251 cells in a 3D model” value in [5] was “decreased”. The “thermal stability of CDK2 (CETSA)” value on CDK2 [6] is “substantially increased”. The “mitochondrial membrane potential, JC-1 fluorescence” value in the test with U251 cells [7] is reported as “dose-dependent decrease in red fluorescence”. Moreover, the “CDK2 stability to pronase digestion (DARTS)” value at CDK2 [9] is reported as “enhanced stability”. The compound also showed an apoptosis rate with U251 cells [10] of 48.56%.
